The source of these data is PMC8881610 (Nature Communications, 2022).

One assay deals with GCGR (Homo sapiens, UniProt P47871). In words: Whole-cell binding assay, competition with 125I-GCG. The following applies: Fig. 7c receptor binding profile, n = 3 in duplicate. On the set-up: V5 (C); 6×His (C); expressed in transfected cells; host or cells: CHO-K1. As to the method: (§1) Human embryonic kidney 293 cells containing SV40 large T-antigen (HEK293T) were cultured in DMEM (Gibco) supplemented with 10% (v/v) fetal bovine serum (FBS, Gibco), 1 mM sodium pyruvate (Gibco) and 100 units/mL penicillin and 100 μg/mL streptomycin at 37 °C in 5% CO2. Chinese hamster ovary (CHO-K1) cells were cultured in F-12 (Gibco) containing 10% FBS, 100 units/mL penicillin and 100 μg/mL streptomycin at 37 °C in 5% CO2. For cAMP and receptor expression assays, HEK293T cells were seeded into 6-well cell culture plates at a density of 7 × 10^5 cells per well. After overnight incubation, cells were transfected with GIPR, GLP-1R or GCGR construct using Lipofectamine 2000 or Lipofectamine 3000 transfection reagent (Invitrogen). For whole-cell binding assay, CHO-K1 cells were seeded into 96-well fibronectin-treated cell culture plates at a density of 3 × 10^4 cells per well. After overnight incubation, cells were transfected with GIPR, GLP-1R or GCGR construct using Lipofectamine 2000 transfection reagent (Invitrogen). Following 24 h culturing, the transfected cells were ready for use.
For GLP-1R and GCGR, CHO-K1 cells (30,000 cells/well) were seeded into Isoplate-96 plates and incubated for 24 h at 37 °C in 5% CO2. The WT or mutant constructs were transiently transfected using Lipofectamine 2000 transfection reagent as previous described. They were then washed twice using F-12 with 0.1% BSA or 0.1% casein, 33 mM HEPES, and incubated for 2 h at 37 °C. […] Cells were washed three times with ice-cold PBS and lysed in PBS with 1% Triton X-100, 20 mM Tris-HCl. After addition of scintillation cocktail (PerkinElmer), radioactivity (CPM) was counted on a MicroBeta^2 microplate counter (PerkinElmer). Data were normalized to the WT response and analyzed using three-parameter logistic equation.

In the next assay the target is T1, GIPR (Homo sapiens, UniProt P48546).
T1 sequence (P48546 22-466): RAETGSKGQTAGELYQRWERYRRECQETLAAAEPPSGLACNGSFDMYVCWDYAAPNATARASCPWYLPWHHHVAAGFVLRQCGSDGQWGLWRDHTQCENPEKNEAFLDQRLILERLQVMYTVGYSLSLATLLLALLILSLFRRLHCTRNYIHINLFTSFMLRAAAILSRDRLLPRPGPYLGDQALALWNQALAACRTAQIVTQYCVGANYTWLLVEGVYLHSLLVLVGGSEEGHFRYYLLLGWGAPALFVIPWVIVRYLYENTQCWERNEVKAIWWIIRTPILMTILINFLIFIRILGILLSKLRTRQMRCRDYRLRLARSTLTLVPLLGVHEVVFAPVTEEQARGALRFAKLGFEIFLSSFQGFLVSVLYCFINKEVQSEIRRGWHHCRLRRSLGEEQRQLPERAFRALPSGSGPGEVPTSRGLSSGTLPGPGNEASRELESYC
As to the kind of experiment: Whole-cell binding assay, competition with 125I-GIP1-42. Details: acylated tirzepatide to the full-length or modified; Flag; expressed in transfected cells. The following applies: Fig. 7c receptor binding profile, n = 3 in duplicate. As to the method: as §1
For GIPR, CHO-K1 cells were cultured in F-12 medium with 10% FBS and seeded at a density of 30,000 cells/well in Isoplate-96 plates (PerkinElmer). The WT or mutant GIPR was transiently transfected using Lipofectamine 2000 transfection reagent as previous described. They were then washed twice using F-12 with 0.1% BSA or 0.1% casein, 33 mM HEPES, and incubated for 2 h at 37 °C. […] Following incubation, cells were washed three times with ice-cold PBS and lysed by addition of 50 μL lysis buffer (PBS supplemented with 20 mM Tris-HCl, 1% Triton X-100, pH 7.4). Fifty µL of scintillation cocktail (OptiPhase SuperMix, PerkinElmer) were added and the plates were subsequently counted for radioactivity (counts per minute, CPM) in a MicroBeta^2 microplate counter (PerkinElmer).

For assay [1] the following is noted: clinical trial outcome; Drugs@FDA, ChemBL, ClinicalTrials.gov; cited from earlier work.
For another assay, the target named is GLP-1R (Homo sapiens, UniProt P43220). In words: cAMP accumulation assay, GLP-1R WT, mutant or modified constructs. The following applies: GLP-1R; HEK293T, n = 4; SEM. The format is cell-based. Details: Flag; expressed in transfected cells; host or cells: HEK293T. As to the method: as §1
The human GLP-1R was modified with its native signal sequence (M1-P23) replaced by the HA signal peptide to facilitate receptor expression. To obtain a GLP-1R–Gs complex with good homogeneity and stability, we used the NanoBiT tethering strategy, in which the C terminus of GLP-1R was directly attached to LgBiT subunit followed by a TEV protease cleavage site and a double MBP tag. […] The constructs were cloned into both pcDNA3.1 and pFastBac vectors for functional assays in mammalian cells and protein expression in insect cells, respectively. Other constructs including the full-length and various mutants of human GLP-1R were cloned into pcDNA3.1 vector for cAMP accumulation and whole-cell binding assays.
For GIPR, GLP-1R and GCGR, multi-targeting agonist stimulated cAMP accumulation was measured by a LANCE Ultra cAMP kit (PerkinElmer). After 24 h culture, the transfected cells were seeded into 384-well microtiter plates at a density of 3,000 cells per well in HBSS supplemented with 5 mM HEPES, 0.1% (w/v) BSA or 0.1% (w/v) casein and 0.5 mM 3-isobutyl-1-methylxanthine. The cells were stimulated with different concentrations of peptide agonists for 40 min at RT. Eu-cAMP tracer and ULight^TM-anti-cAMP were then diluted by cAMP detection buffer and added to the plates separately to terminate the reaction. Plates were incubated at RT for 1 h and the fluorescence intensity measured at 620 nm and […] by an EnVision multilabel plate reader (PerkinElmer).

Chain of GCGR (P47871 26-477): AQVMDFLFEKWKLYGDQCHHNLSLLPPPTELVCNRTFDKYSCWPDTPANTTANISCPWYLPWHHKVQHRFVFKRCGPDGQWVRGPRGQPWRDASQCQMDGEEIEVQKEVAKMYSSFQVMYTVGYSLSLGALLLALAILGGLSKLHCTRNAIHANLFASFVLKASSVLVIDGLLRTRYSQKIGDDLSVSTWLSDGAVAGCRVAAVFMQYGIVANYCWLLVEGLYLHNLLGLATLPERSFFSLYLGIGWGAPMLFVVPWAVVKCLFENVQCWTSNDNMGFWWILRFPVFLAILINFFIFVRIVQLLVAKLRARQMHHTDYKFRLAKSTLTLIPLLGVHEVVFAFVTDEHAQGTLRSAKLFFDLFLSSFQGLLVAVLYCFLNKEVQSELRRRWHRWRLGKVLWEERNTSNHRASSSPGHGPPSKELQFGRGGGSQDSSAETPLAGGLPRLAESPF
Chain of GLP-1R (P43220 24-463): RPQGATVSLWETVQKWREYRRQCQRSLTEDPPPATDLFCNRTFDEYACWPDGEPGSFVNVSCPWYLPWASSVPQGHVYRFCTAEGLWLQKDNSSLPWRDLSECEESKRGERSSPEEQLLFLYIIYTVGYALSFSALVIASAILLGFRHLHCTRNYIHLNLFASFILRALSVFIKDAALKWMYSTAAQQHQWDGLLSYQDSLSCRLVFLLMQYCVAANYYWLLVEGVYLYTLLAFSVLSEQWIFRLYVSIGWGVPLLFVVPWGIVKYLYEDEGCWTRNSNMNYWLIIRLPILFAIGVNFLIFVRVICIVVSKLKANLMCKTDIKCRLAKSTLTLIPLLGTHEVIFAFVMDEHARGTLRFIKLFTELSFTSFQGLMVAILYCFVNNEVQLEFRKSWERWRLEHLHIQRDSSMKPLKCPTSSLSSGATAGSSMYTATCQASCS

Consider `CC[C@H](C)[C@H](NC(=O)[C@H](CO)NC(=O)[C@H](Cc1ccc(O)cc1)NC(=O)[C@H](CC(=O)O)NC(=O)[C@H](CO)NC(=O)[C@@H](NC(=O)[C@H](Cc1ccccc1)NC(=O)[C@@H](NC(=O)CNC(=O)[C@H](CCC(=O)O)NC(=O)[C@H](C)NC(=O)[C@@H](N)Cc1ccc(O)cc1)[C@@H](C)O)[C@@H](C)CC)C(=O)N[C@@H](C)C(=O)N[C@@H](CCSC)C(=O)N[C@@H](CC(=O)O)C(=O)N[C@@H](CCCCN)C(=O)N[C@H](C(=O)N[C@@H](Cc1c[nH]cn1)C(=O)N[C@@H](CCC(N)=O)C(=O)N[C@@H](CCC(N)=O)C(=O)N[C@@H](CC(=O)O)C(=O)N[C@@H](Cc1ccccc1)C(=O)N[C@H](C(=O)N[C@@H](CC(N)=O)C(=O)N[C@@H](Cc1c[nH]c2ccccc12)C(=O)N[C@@H](CC(C)C)C(=O)N[C@@H](CC(C)C)C(=O)N[C@@H](C)C(=O)N[C@@H](CCC(N)=O)C(=O)N[C@@H](CCCCN)C(=O)NCC(=O)N[C@@H](CCCCN)C(=O)N[C@@H](CCCCN)C(=O)N[C@@H](CC(N)=O)C(=O)N[C@@H](CC(=O)O)C(=O)N[C@@H](Cc1c[nH]c2ccccc12)C(=O)N[C@@H](CCCCN)C(=O)N[C@@H](Cc1c[nH]cn1)C(=O)N[C@@H](CC(N)=O)C(=O)N[C@H](C(=O)N[C@H](C(=O)N[C@@H](CCC(N)=O)C(=O)O)[C@@H](C)O)[C@@H](C)CC)C(C)C)[C@@H](C)CC` [GIP1-42, glucose-dependent insulinotropic polypeptide], for which the “GCGR (pIC50 ± S.E.M.)” value at GCGR is “N.B”.

`CCCCCCCCCCCCCCCC(=O)N[C@@H](CCC(=O)NCCCC[C@H](NC(=O)[C@H](C)NC(=O)[C@H](C)NC(=O)[C@H](CCC(N)=O)NC(=O)CNC(=O)[C@H](CCC(=O)O)NC(=O)[C@H](CC(C)C)NC(=O)[C@H](Cc1ccc(O)cc1)NC(=O)[C@H](CO)NC(=O)[C@H](CO)NC(=O)[C@@H](NC(=O)[C@H](CC(=O)O)NC(=O)[C@H](CO)NC(=O)[C@@H](NC(=O)[C@H](Cc1ccccc1)NC(=O)[C@@H](NC(=O)CNC(=O)[C@H](CCC(=O)O)NC(=O)[C@H](C)NC(=O)[C@@H](N)Cc1c[nH]cn1)[C@@H](C)O)[C@@H](C)O)C(C)C)C(=O)N[C@@H](CCC(=O)O)C(=O)N[C@@H](Cc1ccccc1)C(=O)N[C@H](C(=O)N[C@@H](C)C(=O)N[C@@H](Cc1c[nH]c2ccccc12)C(=O)N[C@@H](CC(C)C)C(=O)N[C@H](C(=O)N[C@@H](CCCNC(=N)N)C(=O)NCC(=O)N[C@@H](CCCNC(=N)N)C(=O)NCC(=O)O)C(C)C)[C@@H](C)CC)C(=O)O` [Liraglutide]: the “GCGR (pIC50 ± S.E.M.)” value on GCGR is recorded as “N.B”. Further, on GIPR, the “GIPR (pIC50 ± S.E.M.)” value is “N.B”.

Consider “Albiglutide: approved GLP-1 analog, GLP-1R mono-agonist”, for which, in assay [1], the Body weight was -0.04 kg or %, the Fasting plasma glucose was -30.00 mg/dL and the HAb1c was -1.3%. Moreover, in the assay with GLP-1R, the “cAMP Emax ± S.E.M.” value was 100.13 ± 1.66 % max GLP-1(7-36)NH2 and the “cAMP pEC50 ± S.E.M.” value came to 11.02 ± 0.05. Also, in the assay with GCGR, the “GCGR (pIC50 ± S.E.M.)” value is “N.B”. For the same molecule, the “GIPR (pIC50 ± S.E.M.)” value with GIPR is given as “N.B”.

As to “Dulaglutide: approved GLP-1R mono-agonist”, in assay [1], the Body weight was -0.20 kg or %, the Fasting plasma glucose is -34.20 mg/dL and the HAb1c was -1.45%.

Turning to Exenatide: approved GLP-1R mono-agonist, in assay [1], the Body weight is -0.65 kg or %, the Fasting plasma glucose is reported as -34.20 mg/dL and the HAb1c is recorded as -1.21%.
